Test results published in ChEMBL document CHEMBL1201862, “PubChem BioAssay data set” (2004).
The source made the active and inactive calls.

How the values were obtained:
[1] = HEK-293T viability loss, compound-treated – cell-based, uHTS hits, cytotoxicity control for B/T-cell NF-kB inhibitor project, dose response (AID 489019); format: functional;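 also: IC50 reflects cytotoxicity as loss of cell viability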
[2] = non-specific 3'UTR reporter inhibition in Clone20-Shn3RL – cell-based, Renilla luciferase, cherry-picked, counter-screen for Shn3 inhibitor project, dose response (AID 624133); format: functional
[3] = target: T1, COUP transcription factor 2 (Homo sapiens, UniProt P24468); experiment: Luminescence-based cell-based high throughput dose response assay to identify inhibitors of COUP-TFII (NR2F2).; format: functional;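 also: HEK293 cells transiently cotransfected with COUP-TFII expression vector and reporter; luciferase reporter luminescence driven by COUP-TFII from the pX2-168 reporter plasmid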
T1 sequence (P24468 whole entry): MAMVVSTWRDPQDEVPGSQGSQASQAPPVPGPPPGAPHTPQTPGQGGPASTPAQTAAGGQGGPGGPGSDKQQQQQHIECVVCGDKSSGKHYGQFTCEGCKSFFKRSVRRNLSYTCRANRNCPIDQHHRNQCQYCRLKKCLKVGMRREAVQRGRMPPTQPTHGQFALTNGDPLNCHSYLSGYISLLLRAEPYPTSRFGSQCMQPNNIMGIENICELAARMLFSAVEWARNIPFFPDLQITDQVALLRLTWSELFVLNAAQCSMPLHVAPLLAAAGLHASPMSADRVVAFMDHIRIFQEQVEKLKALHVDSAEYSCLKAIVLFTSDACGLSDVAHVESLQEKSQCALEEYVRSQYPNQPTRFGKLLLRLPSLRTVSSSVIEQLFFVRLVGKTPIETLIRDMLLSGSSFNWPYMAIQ

[4] = reduction of Shn3 3'UTR-driven luciferase in osteoblasts – cell-based, Clone20 osteoblasts, firefly luciferase, cherry-picked, dose response (AID 624132); format: functional;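 also: firefly luciferase luminescence from reporter carrying the Shn3 3'UTR in osteoblasts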
[5] = test system: Jurkat; experiment: blockers of NF-kB activation in T cells – Jurkat, luciferase reporter, luminescence, B- and T-cell, dose response (AID 489004); format: functional, cell-based; details: Homo sapiens;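 also: NF-kB luciferase reporter Jurkat cells stimulated with PMA plus ionomycin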
[6] = test system: INS1; experiment: INS-1E survival protection against cytokine death – cell-based, luminescence, retest, dose response (AID 449756); format: functional; details: Rattus norvegicus;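 also: cell death triggered by IL-1 beta plus TNF-alpha plus IFN-gamma mixture; protective hits raise ATP signal compared with cytokine alone wells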
[7] = cells; format: functional, cell-based; details: HEK-CNG
[8] = target: Galanin receptor type 3 (Homo sapiens, UniProt O60755); experiment: Fluorescence-based cell-based primary high throughput dose response assay to identify antagonists of the Galanin Receptor 3 (GalR3).; format: functional
[9] = THP-1 cell cytotoxicity, dose response, cytotoxicity control for non-replicating M. tuberculosis project (AID 489025); format: functional
[10] = NIH-3T3 fibroblast cytotoxicity, dose response, cytotoxicity control, cell-based, fluorescence, Alamar Blue, secondary assay (AID 2327); format: functional;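 also: NIH-3T3 mouse fibroblasts cultured with fluconazole at 8 µg/mL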
[11] = test system: A-375; experiment: MITF: Counter assay: A375 proliferation Measured in Cell-Based System Using Plate Reader - 2084-03_Inhibitor_Dose_DryPowder_Activity. [Related pubchem assays (depositor defined):AID488944]; format: functional; details: Homo sapiens
[12] = target: Beta-galactosidase (Escherichia coli, UniProt Q8VNN2); experiment: detection-enzyme interference by beta-gal modulators – biochemical, E. coli enzyme, set 3, artefact control for CCR6 antagonist project, dose response (AID 504712); format: functional
[13] = test system: A-375; experiment: proliferation inhibition in MITF-low A375 cells – cell-based, cherry-pick samples, set 2, counter-screen for MITF modulator project, dose response (AID 540335); format: functional; details: Homo sapiens
[14] = target: Galanin receptor type 2 (Homo sapiens, UniProt O43603); experiment: Dose Response cell-based high-throughput screening assay to identify antagonists of galanin receptor 2 (GALR2). [Related pubchem assays: 828, 866 ]; format: functional
[15] = fluconazole-exposed Candida albicans growth modulators – fluorescence, retest, confirmation (AID 2467); format: functional, cell-based
[16] = cells; format: functional
[17] = target: Heat shock protein HSP 90-alpha (Homo sapiens, UniProt P07900); format: functional, organism-based
[18] = target: T2, Microphthalmia-associated transcription factor (Homo sapiens, UniProt O75030); experiment: reducers of TRPM1 reporter luminescence, concentration series – cell-based, SK-MEL-5, cherry-picked, set 3, MITF inhibitor project, dose response (AID 493073); format: functional;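 also: SK-MEL-5 melanoma cells with luciferase driven by the MITF target TRPM1 promoter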
T2 sequence (O75030 whole entry): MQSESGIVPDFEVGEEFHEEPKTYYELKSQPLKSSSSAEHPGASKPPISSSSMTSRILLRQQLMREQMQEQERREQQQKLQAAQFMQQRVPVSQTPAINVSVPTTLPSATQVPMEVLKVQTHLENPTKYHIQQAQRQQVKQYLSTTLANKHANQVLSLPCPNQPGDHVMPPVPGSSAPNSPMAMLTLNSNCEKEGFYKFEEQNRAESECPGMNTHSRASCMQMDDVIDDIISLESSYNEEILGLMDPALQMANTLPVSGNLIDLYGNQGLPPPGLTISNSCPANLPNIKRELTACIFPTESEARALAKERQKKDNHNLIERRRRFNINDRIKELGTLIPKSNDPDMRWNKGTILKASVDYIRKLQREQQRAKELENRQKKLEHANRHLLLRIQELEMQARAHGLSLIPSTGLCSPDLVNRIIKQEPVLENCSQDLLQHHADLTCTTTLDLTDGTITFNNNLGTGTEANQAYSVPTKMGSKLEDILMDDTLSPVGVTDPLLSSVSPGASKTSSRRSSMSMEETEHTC

[19] = Late-stage probe development counterscreen for inhibitors of the Hepatitis C Virus non-structural protein 3 helicase (NS3): luminescence-based cell-based dose response assay to determine whether compounds that inhibit replication of HCV RNA replicon are cytotoxic. [Related pubchem assays (depositor defined):AID1800, AID1830, AID1845, AID1943, AID1945, AID2172, AID2173, AID2474, AID2476]; format: functional
[20] = target: NS3 (Hepatitis C virus, UniProt A3EZJ3); experiment: PubChem AID 2173; design: species or system Hepacivirus hominis
[21] = test system: HeLa; experiment: ATP-based viability loss in HeLa cells – cell-based, CellTiter-Glo luminescence, cherry-pick samples, cytotoxicity control for MITF activator project, dose response (AID 540259); format: functional; details: Homo sapiens
[22] = target: T3, Rac GTPase-activating protein 1 (Homo sapiens, UniProt Q9H0H5); experiment: blockers of MgcRacGAP-driven Rac1 GTP hydrolysis – biochemical, ADP Hunter fluorescence, primary and confirmatory, confirmation (AID 624330); format: functional
T3 sequence (Q9H0H5 whole entry): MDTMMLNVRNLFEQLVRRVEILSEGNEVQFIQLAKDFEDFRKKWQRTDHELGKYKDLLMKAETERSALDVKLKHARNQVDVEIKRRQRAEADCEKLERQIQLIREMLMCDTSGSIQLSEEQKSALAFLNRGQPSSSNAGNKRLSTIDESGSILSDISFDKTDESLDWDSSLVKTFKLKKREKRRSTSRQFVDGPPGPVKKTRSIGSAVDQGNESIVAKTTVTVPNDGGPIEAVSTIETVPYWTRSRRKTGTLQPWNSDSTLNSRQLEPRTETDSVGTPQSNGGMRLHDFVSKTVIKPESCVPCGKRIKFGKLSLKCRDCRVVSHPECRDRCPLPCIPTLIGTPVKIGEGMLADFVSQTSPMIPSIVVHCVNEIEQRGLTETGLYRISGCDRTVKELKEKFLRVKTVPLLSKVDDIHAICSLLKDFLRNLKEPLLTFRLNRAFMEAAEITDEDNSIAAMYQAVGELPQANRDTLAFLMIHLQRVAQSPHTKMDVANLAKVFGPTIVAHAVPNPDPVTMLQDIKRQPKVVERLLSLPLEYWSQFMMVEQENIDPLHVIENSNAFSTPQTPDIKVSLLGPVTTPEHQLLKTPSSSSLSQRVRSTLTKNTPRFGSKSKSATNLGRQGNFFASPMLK

[23] = target: T4, DNA repair protein RAD52 homolog (Homo sapiens, UniProt P43351); format: functional, biochemical
T4 sequence (P43351 whole entry): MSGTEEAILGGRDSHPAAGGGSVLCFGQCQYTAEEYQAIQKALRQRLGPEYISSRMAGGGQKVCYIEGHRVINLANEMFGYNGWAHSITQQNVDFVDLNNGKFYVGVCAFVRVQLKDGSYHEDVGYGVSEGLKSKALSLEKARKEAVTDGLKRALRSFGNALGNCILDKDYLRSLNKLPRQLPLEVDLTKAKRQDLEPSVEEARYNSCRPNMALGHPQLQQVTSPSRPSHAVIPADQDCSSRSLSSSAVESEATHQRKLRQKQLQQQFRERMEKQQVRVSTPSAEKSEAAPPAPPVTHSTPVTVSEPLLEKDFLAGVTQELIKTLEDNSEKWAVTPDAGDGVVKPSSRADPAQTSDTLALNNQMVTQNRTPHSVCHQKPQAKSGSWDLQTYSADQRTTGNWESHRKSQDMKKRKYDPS

[24] = target: Delta-type opioid receptor (Homo sapiens, UniProt P41143); experiment: Counterscreen for agonists of heterodimerization of the mu 1 (OPRM1) and delta 1 (OPRD1) opioid receptors: Luminescence-based cell-based high throughput dose response assay to identify agonists of OPRD1 homodimerization. [Related pubchem assays (depositor defined):AID504326, AID504355, AID504692, AID504904, AID504905]; format: functional
[25] = target: 5-hydroxytryptamine receptor 5A (Homo sapiens, UniProt P47898); experiment: Counterscreen for agonists of OPRM1-OPRD1 heterodimerization: luminescence-based cell-based high throughput dose response assay to identify agonists of 5-hydroxytryptamine (serotonin) 5A receptor (HTR5A). [Related pubchem assays (depositor defined):AID504326, AID504355, AID504692, AID504904, AID504905]; format: functional
[26] = target: Mu-type opioid receptor (Homo sapiens, UniProt P35372); experiment: Counterscreen for agonists of heterodimerization of the mu 1 (OPRM1) and delta 1 (OPRD1) opioid receptors: Luminescence-based cell-based high throughput dose response assay to identify agonists of OPRM1 homodimerization.; format: functional;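 also: U2OS cells expressing OPRM1 and beta-arrestin as split beta-galactosidase partners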
[27] = target: T5, Hexokinase HKDC1 (Homo sapiens, UniProt Q2TB90); experiment: analog inhibition of human HKDC1 activity – biochemical, set 2, SAR follow-up (AID 588355); format: functional
T5 sequence (Q2TB90 whole entry): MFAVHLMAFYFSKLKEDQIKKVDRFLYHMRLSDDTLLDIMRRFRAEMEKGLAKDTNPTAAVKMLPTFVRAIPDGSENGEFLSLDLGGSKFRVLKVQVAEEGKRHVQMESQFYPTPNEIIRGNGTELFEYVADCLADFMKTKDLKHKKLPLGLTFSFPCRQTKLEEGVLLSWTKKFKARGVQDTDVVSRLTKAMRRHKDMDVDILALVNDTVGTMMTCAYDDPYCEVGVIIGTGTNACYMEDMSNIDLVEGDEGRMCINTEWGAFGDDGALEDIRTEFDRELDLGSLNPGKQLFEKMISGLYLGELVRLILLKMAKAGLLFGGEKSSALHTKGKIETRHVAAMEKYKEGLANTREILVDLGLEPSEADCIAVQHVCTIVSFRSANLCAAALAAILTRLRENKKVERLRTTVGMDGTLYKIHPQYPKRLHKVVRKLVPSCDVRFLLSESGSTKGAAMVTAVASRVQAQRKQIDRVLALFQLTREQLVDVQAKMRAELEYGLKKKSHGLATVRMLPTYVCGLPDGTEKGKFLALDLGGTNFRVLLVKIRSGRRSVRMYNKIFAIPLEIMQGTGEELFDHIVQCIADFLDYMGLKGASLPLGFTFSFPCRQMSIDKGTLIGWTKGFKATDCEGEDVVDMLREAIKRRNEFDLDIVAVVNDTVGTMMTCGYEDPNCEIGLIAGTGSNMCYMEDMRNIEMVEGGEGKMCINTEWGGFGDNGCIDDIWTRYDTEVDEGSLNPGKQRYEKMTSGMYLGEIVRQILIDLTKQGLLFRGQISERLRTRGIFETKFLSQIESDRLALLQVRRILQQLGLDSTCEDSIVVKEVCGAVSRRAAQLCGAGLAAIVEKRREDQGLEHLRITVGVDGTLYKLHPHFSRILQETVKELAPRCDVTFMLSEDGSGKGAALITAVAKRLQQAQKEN

[28] = target: Hexokinase-1 (Homo sapiens, UniProt P19367); experiment: hexokinase 1 activity inhibitors, potency – biochemical, set 2, resazurin fluorescence coupled readout, selectivity assay for HKDC1 inhibitor project, SAR follow-up (AID 588356); format: functional
[29] = test system: Escherichia coli; experiment: microbe, parasite or virus in culture

Chain of NS3 (A3EZJ3 whole entry): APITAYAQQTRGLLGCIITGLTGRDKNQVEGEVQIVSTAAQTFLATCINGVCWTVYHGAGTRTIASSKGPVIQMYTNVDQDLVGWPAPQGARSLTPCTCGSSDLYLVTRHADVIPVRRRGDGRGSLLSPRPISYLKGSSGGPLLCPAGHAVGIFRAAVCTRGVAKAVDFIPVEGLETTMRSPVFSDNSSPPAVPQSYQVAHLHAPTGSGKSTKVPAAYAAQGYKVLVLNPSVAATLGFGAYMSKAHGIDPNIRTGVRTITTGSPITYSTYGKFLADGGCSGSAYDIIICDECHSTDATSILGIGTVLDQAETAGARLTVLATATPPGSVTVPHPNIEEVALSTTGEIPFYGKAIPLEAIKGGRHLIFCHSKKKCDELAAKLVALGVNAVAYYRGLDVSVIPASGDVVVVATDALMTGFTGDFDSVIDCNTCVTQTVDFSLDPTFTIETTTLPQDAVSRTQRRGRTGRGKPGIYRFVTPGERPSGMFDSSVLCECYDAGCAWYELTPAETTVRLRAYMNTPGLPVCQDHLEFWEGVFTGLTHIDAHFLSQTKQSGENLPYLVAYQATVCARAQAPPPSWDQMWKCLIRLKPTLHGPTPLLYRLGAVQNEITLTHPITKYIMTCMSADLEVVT
Chain of Galanin receptor type 3 (O60755 whole entry): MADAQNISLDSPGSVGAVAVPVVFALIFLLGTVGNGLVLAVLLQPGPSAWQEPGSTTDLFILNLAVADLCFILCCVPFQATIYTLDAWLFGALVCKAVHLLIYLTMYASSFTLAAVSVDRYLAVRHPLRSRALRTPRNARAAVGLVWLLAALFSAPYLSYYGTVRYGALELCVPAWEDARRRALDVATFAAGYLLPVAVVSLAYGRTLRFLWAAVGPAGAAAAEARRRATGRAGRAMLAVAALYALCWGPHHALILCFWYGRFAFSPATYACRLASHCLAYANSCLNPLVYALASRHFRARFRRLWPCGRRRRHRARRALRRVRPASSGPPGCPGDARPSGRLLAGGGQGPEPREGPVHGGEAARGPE
Chain of Beta-galactosidase (Q8VNN2 whole entry): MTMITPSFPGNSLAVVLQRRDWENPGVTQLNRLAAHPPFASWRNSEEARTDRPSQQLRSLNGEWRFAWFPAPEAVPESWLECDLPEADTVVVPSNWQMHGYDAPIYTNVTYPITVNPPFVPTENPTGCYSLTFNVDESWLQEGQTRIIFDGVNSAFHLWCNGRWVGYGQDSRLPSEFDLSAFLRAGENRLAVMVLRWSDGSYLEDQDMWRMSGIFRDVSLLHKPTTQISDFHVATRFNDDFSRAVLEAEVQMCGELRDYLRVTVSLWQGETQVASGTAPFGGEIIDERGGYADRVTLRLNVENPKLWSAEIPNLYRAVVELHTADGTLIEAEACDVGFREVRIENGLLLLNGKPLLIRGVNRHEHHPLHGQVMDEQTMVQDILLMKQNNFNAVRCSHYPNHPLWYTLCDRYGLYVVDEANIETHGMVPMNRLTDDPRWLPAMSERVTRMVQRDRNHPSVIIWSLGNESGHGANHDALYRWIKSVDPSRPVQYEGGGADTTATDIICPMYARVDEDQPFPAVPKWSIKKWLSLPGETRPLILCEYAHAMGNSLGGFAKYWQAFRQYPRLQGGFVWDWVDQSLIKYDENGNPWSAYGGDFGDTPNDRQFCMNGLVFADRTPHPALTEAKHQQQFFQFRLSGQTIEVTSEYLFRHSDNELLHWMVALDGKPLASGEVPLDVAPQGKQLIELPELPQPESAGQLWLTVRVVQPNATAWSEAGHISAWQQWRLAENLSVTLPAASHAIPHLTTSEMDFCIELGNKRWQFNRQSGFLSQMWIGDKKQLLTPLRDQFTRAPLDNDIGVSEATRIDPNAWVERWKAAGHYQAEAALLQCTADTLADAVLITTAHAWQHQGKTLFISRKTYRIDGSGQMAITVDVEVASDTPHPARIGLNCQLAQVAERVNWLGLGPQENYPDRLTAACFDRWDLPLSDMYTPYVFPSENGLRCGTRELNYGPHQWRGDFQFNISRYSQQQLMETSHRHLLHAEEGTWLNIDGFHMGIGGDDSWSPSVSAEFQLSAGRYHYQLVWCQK
Chain of Mu-type opioid receptor (P35372 whole entry): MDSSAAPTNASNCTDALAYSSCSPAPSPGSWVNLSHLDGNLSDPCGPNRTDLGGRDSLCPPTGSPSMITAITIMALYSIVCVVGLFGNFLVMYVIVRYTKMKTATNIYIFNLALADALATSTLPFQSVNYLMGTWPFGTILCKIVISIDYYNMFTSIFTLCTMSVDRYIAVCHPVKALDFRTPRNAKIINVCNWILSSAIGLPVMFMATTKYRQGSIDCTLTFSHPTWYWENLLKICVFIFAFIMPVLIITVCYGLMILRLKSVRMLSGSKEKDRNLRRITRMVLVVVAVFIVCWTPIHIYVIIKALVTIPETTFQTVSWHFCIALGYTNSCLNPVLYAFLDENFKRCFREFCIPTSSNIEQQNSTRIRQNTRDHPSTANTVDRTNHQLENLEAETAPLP
Chain of Delta-type opioid receptor (P41143 whole entry): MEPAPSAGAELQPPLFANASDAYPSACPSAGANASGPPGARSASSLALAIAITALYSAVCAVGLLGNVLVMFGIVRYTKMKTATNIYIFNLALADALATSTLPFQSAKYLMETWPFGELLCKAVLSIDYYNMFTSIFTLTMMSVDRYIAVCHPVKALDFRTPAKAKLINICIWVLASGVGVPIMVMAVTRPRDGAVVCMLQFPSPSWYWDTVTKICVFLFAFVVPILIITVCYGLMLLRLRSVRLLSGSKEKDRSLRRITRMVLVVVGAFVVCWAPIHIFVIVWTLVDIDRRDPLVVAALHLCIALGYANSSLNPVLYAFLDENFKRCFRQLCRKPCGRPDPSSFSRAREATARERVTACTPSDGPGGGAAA
Chain of Galanin receptor type 2 (O43603 whole entry): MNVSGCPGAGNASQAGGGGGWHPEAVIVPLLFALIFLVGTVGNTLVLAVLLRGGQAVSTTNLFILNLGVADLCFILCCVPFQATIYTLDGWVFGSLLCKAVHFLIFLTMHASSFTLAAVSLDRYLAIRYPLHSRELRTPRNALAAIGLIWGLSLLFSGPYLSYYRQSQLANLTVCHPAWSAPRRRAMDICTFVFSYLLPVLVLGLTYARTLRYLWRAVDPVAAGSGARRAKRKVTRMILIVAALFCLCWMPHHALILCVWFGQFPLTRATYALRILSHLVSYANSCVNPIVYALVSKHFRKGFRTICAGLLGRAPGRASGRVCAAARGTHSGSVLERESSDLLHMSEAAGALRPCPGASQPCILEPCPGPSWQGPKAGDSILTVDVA
Chain of 5-hydroxytryptamine receptor 5A (P47898 whole entry): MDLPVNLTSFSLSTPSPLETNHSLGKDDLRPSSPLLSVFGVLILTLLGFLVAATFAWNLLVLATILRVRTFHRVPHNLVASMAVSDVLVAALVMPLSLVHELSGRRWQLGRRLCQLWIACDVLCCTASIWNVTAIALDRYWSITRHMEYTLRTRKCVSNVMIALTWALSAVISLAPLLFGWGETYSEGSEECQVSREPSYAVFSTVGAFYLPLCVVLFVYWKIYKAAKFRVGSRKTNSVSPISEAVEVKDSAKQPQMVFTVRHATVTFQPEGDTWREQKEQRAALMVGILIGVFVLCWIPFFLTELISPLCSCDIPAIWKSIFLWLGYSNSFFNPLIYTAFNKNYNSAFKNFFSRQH
Chain of Hexokinase-1 (P19367 whole entry): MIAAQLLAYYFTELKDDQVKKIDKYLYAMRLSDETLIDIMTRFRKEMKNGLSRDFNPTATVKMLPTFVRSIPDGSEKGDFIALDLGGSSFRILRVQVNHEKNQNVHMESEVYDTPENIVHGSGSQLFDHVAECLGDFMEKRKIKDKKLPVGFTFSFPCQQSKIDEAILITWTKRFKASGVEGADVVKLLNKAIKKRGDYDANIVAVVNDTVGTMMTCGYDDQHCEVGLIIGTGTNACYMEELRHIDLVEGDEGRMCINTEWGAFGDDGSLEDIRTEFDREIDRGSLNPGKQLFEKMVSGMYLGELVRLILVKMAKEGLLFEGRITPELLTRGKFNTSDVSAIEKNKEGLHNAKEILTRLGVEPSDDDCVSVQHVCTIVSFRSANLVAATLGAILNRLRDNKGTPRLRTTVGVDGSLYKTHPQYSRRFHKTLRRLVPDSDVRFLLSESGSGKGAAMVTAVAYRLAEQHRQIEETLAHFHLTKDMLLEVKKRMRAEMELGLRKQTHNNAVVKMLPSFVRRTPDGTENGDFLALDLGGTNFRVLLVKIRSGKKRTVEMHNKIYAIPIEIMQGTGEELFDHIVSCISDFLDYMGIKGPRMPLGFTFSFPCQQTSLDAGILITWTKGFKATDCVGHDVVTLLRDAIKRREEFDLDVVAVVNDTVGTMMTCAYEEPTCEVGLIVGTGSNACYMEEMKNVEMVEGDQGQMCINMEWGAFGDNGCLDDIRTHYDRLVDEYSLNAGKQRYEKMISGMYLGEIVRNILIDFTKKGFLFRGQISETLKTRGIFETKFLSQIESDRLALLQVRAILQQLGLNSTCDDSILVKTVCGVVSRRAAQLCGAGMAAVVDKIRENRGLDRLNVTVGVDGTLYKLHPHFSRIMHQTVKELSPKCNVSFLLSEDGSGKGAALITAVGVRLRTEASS

In the case of `COc1ccc(CCNc2ncnc3sccc23)cc1OC`, the IC50 [1] is reported as > 80 µM (inactive), the AC50 [2] is reported as 1.5 µM (active) and the IC50 [3] is reported as 1.97 µM (active). For the same molecule, the AC50 [4] was < 0.26 µM (active), the IC50 [5] was > 80 µM (inactive) and the AC50 [6] was 0.71 µM (active). The EC50 [7] was > 29.9 µM (inactive) and the IC50 [8] was 0.371 µM (active).

For `CCOC(=O)c1cc([N+](=O)[O-])c([N+](=O)[O-])cc1NC(C)=O`, the CC50 [9] was 13.1 µM (active), the EC50 [10] was 4.65 µM (inconclusive) and the AC50 [11] was > 35 µM (active). The IC50 [12] was > 66.6 µM (inactive), the AC50 [13] was > 35 µM (active) and the IC50 [14] was 10.3 µM (not active). For the same molecule, the EC50 [15] was 2.01 µM (active), the IC50 [16] was 9.64 µM (active) and the AC50 [17] was 2.59 µM (active). For the same molecule, the AC50 [18] was 24.2 µM (active).

For `CCOc1cccc(C2C(C(=O)c3ccc(C)o3)=C(O)C(=O)N2Cc2ccccc2)c1` (centres undefined), the CC50 [19] was > 100 µM (inactive) and the IC50 [20] was 4.29 µM (active).

With `O=C(Nc1ccc(O)cc1)c1cc2ccccc2c(=O)s1` the AC50 [21] was > 350 µM (inactive) and the IC50 [22] was 23.3 µM (active).

With `CN(C)CCCN(C(=O)c1ccc(Br)s1)c1nc2cc3c(cc2s1)OCCO3` the AC50 [23] was 21.1 µM (active), the EC50 [24] was > 92.5 µM (inactive) and the EC50 [25] was > 92.5 µM (inactive). The EC50 [26] was > 92.5 µM (inactive).

For `Cc1ccccc1N1C(=O)c2ccccc2C1Nc1ccccc1` (centres undefined), the IC50 [27] was > 80 µM (inactive) and the IC50 [28] was > 80 µM (inactive).

With `O=[N+]([O-])c1cccc(COc2cccc(CN3CCCCC3)c2)c1` the AC50 [29] was 21.2 µM (active).
